The target in the test is T1, c-kit (Homo sapiens, UniProt P10721).
T1 construct: human Mo7e cells which endogenously express c-kit; endogenous in cells; host or cells: human Mo7e cells (promegakaryocytic leukemia line), stimulated with human recombinant SCF
T1 sequence (P10721 26-976): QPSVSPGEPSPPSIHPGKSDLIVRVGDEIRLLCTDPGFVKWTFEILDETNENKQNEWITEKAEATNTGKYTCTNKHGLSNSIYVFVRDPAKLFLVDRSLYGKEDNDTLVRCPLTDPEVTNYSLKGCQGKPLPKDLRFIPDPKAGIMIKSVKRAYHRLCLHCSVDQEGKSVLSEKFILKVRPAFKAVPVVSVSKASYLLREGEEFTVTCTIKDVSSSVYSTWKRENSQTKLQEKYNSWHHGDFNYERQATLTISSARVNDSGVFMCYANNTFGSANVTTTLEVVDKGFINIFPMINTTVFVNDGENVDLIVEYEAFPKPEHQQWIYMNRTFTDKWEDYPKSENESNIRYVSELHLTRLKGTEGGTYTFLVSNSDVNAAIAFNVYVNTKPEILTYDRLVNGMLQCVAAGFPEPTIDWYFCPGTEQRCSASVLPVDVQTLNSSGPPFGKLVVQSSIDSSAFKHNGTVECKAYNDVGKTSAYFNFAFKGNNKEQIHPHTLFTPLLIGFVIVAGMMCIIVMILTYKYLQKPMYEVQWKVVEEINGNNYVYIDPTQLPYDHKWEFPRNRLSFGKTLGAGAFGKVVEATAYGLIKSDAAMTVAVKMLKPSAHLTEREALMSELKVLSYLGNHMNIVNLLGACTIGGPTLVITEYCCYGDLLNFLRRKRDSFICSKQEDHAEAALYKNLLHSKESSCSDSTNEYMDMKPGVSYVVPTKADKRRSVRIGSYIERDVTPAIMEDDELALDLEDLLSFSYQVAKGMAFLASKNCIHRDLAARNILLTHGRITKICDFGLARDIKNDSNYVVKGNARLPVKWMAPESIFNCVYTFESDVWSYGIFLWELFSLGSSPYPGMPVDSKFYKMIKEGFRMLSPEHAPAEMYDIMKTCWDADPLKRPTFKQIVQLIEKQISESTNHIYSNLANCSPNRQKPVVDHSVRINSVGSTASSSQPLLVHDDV
Kind of test: Mo7e cell proliferation assay (SCF dependent proliferation). The class given is cell-based. As to conditions: Table 2; human Mo7e cells stimulated with SCF, 48 hours, CellTiter Glo; 1% FBS; read-out: c-kit (Mo7e). An outline of the steps: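 Human Mo7e cells with endogenous c-kit, proliferation driven by SCF, 384-well format. After 48 h at 37 °C viability read by CellTiter-Glo luminescence. IC50 taken as concentration giving response halfway between baseline and maximum.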
In general terms: ATP-based viability assays read luminescence as a measure of living cells.
As to `Cc1ccc(-c2noc([C@@H]3CCCO3)n2)cc1NC(=O)c1cnc2ccccn12` [F297], the IC50 was 2.79 µM. The same measure for `Cc1ccc(-c2noc(C3CNC3)n2)cc1NC(=O)c1cnc2ccccn12` [F298]: 2.86 µM; for `Cc1ccc(-c2noc(C3CN(S(=O)(=O)c4c[nH]cn4)C3)n2)cc1NC(=O)c1cnc2ccccn12` [F299]: 3.52 µM.

`Cc1ccc(-c2nc(C3CN(C(=O)OC(C)(C)C)C3)no2)cc1NC(=O)c1cnc2ccccn12` [F300]: the IC50 came out at 3.56 µM. In the case of `Cc1ccc(-c2noc(C3CN(S(=O)(=O)c4cn(C)cn4)C3)n2)cc1NC(=O)c1cnc2ccccn12` [F301], the IC50 was 3.97 µM.

Take `Cc1ccc(-c2noc([C@H]3C[C@@H](O)CN3)n2)cc1NC(=O)c1cnc2ccc(F)cn12` [F302]: the IC50 came out at 4.33 µM. In the case of `Cc1ccc(-c2noc(CCC(=O)N3CCN(C)CC3)n2)cc1NC(=O)c1cnc2ccccn12` [F303] it was 4.64 µM.

Consider `Cc1ccc(-c2noc(CC3CCNC3)n2)cc1NC(=O)c1cnc2ccccn12` (centres unmarked) [F304], for which the IC50 turned out to be 5.23 µM. The same measure for `Cc1ccc(-c2noc(C3C[C@@H](O)CN3)n2)cc1NC(=O)c1cnc2ccc(F)cn12` (some centres unmarked) [F305]: 8.08 µM; for `Cc1ccc(-c2noc(C3C[C@H](O)CN3)n2)cc1NC(=O)c1cnc2ccc(F)cn12` (some centres unmarked) [F306]: 8.37 µM; for `COC(=O)N1CC(c2nc(-c3ccc(C)c(NC(=O)c4cnc5ccc(CCC(=O)O)cn45)c3)no2)C1` [F307]: over 10 µM. Turning to `COC(=O)N1CC(c2nc(-c3ccc(C)c(NC(=O)c4cnc5ccc(CCc6nn[nH]n6)cn45)c3)no2)C1` [F308], the IC50 is over 10 µM. As for `COC(=O)CS(=O)(=O)N1CC(c2nc(-c3ccc(C)c(NC(=O)c4cnc5ccccn45)c3)no2)C1` [F309], the IC50 was over 10 µM. Regarding `COC(=O)N1CC(c2nc(-c3ccc(C)c(NC(=O)c4cnc5ccc(CCCc6nn[nH]n6)cn45)c3)no2)C1` [F310], the IC50 is over 10 µM.

For the origin of these results see patent publication US8754071B2 (priority 2011, dated 2014).
